Patent publication US20260148853A1, “UQCC2-BASED COMPUTER-ASSISTED METHOD, SYSTEM, AND DEVICE FOR DIAGNOSING OSIMERTINIB-RESISTANT LUNG CANCER, PREDICTING DRUG THERAPEUTIC EFFECTS, AND SCREENING DRUGS TARGETED FOR OSIMERTINIB-RESISTANT LUNG CANCER” (THE SECOND HOSPITAL OF DALIAN MEDICAL UNIVERSITY, priority 2024, published 2026)
d = 2'-deoxy (DNA)

Tests used:
Assay type in all cases: cell-based
[1] = test system: UQCC2; assay: western blot of UQCC2 after siRNA knockdown of METTL3 in H1975/OR cells; conditions: FIG. 11B
Excerpt: (§1) In one embodiment, the correlation between METTL3 and UQCC2 expression was investigated by western blot assay after knockdown of the gene expression of METTL3 or UQCC2 in H1975/OR cells through small interfering RNA (siRNA), etc. The knockdown may be a partial reduction in the expression level of a specific gene.
(§2) siMETTL3 (5′-3′) (siRNA for METTL3 gene knockdown): sense strand GCACUUGGAUCUACGGAAU(dT)(dT); antisense strand AUUCCGUAGAUCC AAGUGC(dT)(dT); siUQCC2 (5′-3′) (siRNA for UQCC2 gene knockdown): sense strand: […], antisense strand: […].
(§3) In some embodiments, the western blot assay was performed using the following antibodies: anti-METTL 3 (antibody dilution ratio of 1:2000; #15073-1-AP; Proteintech) and anti-UQCC2 (antibody dilution ratio of 1:1000, Proteintech, #25781-1-AP). Anti-GAPDH (antibody dilution ratio 1:50,000, Proteintech, #60004-1-Ig) was used as a loading control. Significance was calculated using GraphPad Prism software, etc.

[2] = test system: METTL3; assay: western blot of METTL3 after siRNA knockdown of UQCC2 in H1975/OR cells; conditions: FIG. 11C
Excerpt: as §1, §2, §3

[3] = test system: autophagosome markers LC3 and p62; assay: western blot of autophagosome markers after UQCC2 knockdown in H1975/OR cells; conditions: FIG. 11
Description: In a specific embodiment, the impact of UQCC2 knockdown in H1975/OR cells on the expression of the autophagosome markers LC3 and p62 was investigated by western blot assay. siUQCC2 (5′-3′): sense strand: […]; antisense strand: […].
In some embodiments, the western blot assay was performed using the following antibodies: anti-UQCC 2 (antibody dilution ratio of 1:1000, Proteintech, #25781-1-AP), anti-LC3 (antibody dilution ratio of 1:2000; #81004-1-RR; Proteintech), and anti-p 62 (antibody dilution ratio of 1:5000; #80294-1-RR; Proteintech). Anti-GAPDH (Antibody dilution ratio 1:50,000, Proteintech, #60004-1-Ig) was used as a loading control. Significance was calculated using GraphPad Prism software, etc.

[4] = test system: autophagosome marker LC3; assay: immunofluorescence assay of LC3 after UQCC2 knockdown in H1975/OR cells; conditions: FIG. 12
Description: In one embodiment, the expression of the autophagosome marker LC3 was analyzed by the immunofluorescence assay after the UQCC2 knockdown in H1975/OR cells. siUQCC2 (5′-3′): sense strand: […]; antisense strand: […].
In some embodiments, the H 1975/OR cells may be fixed with 4% formaldehyde, permeabilized with 0.2% Triton X-100, and blocked with 5% bovine serum albumin. The cells were then incubated with the indicated antibodies at 4° C. overnight and stained with fluorescently coupled secondary antibodies and DAPI solution. The H1975/OR cells were photographed under a fluorescence microscope (Leica DM6B Thunder). Anti-LC3 (antibody dilution ratio of 1:100; antibody used was Proteintech, No. 81004-1-RR).

[5] = test system: UQCC2; assay: western blot of UQCC2 protein expression in NCI-H1975/OR cells treated with Ctrl, Osim or Lomi; conditions: NCI-H1975/OR cells (osimertinib-resistant), lomitapide alone vs Osim and Ctrl, FIG. 9
Description: In a specific embodiment, the protein expression levels of UQCC2 in the NCI-H1975 cells and the NCI-H1975/OR cells (Ctrl) were determined by western blot assay, or the like. The NCI-H1975/OR cells (Ctrl) were osimertinib-resistant cells. The western blot assay used anti-UQCC2 (antibody dilution ratio of 1:1000, Proteintech, #25781-1-AP). Anti-GAPDH (antibody dilution ratio of 1:50,000, Proteintech, #60004-1-Ig) was used as a loading control. Significance (denoted as P) was determined using GraphPad Prism software, etc. All statistical analyses were performed using data from at least three independent experiments. […] “*” refers to a marker sign of significance.
In a specific embodiment, the protein expression of UQCC2 in the NCI-H1975/OR cells (treated with Ctrl, Osim, or Lomi alone) was determined by western blot assay. The western blot assay was performed using the following antibody: anti-UQCC2 (antibody dilution ratio of 1:1000, Proteintech, #25781-1-AP). Anti-GAPDH (antibody dilution ratio of 1:50,000, Proteintech, #60004-1-Ig) was used as a loading control. Significance was calculated using GraphPad Prism software, etc.

With “siMETTL3: siRNA for METTL3 gene knockdown; sense strand GCACUUGGAUCUACGGAAU(dT)(dT) (antisense AUUCCGUAGAUCCAAGUGC; sense: 3' dTdT, sugars by position and backbone not given here; antisense: chemistry not given here)” the “expression of UQCC2” value [1] was “downregulates”.
In the case of “siUQCC2: siRNA for UQCC2 gene knockdown; sense strand GACUCCAUUCAAACUACUATT, antisense strand UAGUAGUUUUGAAUGGAGUCTT (chemistry not fully specified)”, the “expression of METTL3” value [2] is reported as “does not affect”, the autophagy [3] is reported as “significantly activated” and the “expression of autophagosome marker LC3” value [3] is reported as “upregulation”. The “expression of autophagosome marker p62” value [3] was “upregulation”, the autophagy [4] was “significantly activated” and the “expression of autophagosome marker LC3” value [4] was “up-regulation”.
In the case of `O=C(NC1CCN(CCCCC2(C(=O)NCC(F)(F)F)c3ccccc3-c3ccccc32)CC1)c1ccccc1-c1ccc(C(F)(F)F)cc1` [lomitapide], the “protein expression of UQCC2” value [5] is reported as “significantly reduced”.
